Literature values, collected in patent US11135214B2, “Methods for enhancing the bio availability and exposure of a voltage-gated potassium channel opener” (priority 2018, dated 2021).

Experiments:
[1] = system: neural membrane excitability; settings: Ziemann et al. 2015; Ossemann et al. 2016; cited from earlier work
[2] = FDA Approved Labeling Text for Potiga; Harris and Murphy 2011; cited from earlier work
[3] = Prescott and Evans 2014; cited from earlier work
TEP components = settings: TMS-EEG, Premoli et al. 2016; cited from earlier work

Compound	motor threshold (at rest and under active muscular contraction) [1]	food effect on bioavailability and exposure after oral administration [2]	black-box warnings after long term use [3]	P180 component (TEP components)	amplitude of the N45 (TEP components)
NC(=O)N1c2ccccc2C=Cc2ccccc21 [carbamazepine]	increased				
CCOC(=O)Nc1ccc(NCc2ccc(F)cc2)cc1N [retigabine]	increased	lack of food effect	discoloration of skin, lips, nails and retinal pigmentary changes		
Nc1nnc(-c2cccc(Cl)c2Cl)c(N)n1 [lamotrigine]	increased			suppressed	increased
CC[C@@H](C(N)=O)N1CCCC1=O [levetiracetam]				suppressed	increased
